Test results: patent US20220008365A1, “Treating Intraocular Retinoblastoma with Inhibitors of Histone Modification” (Vanderbilt University, priority 2018, published 2022)
“Also recorded” adds a separate entry of the source.

Legend:
rabbit eye (retina) = assay: retinal histopathology after intravitreal injections; assay type: in vivo; conditions: 3 weekly intravitreal injections; belinostat 350 μg or 700 μg; melphalan 25 μg
Protocol: (§1) For the first small animal IAC model developed by the inventors and referenced above, the rabbit's dominant ophthalmic artery was endovascularly cannulated, and each drug was injected at various doses. For intravitreal experiments, 1-3 weekly injections of each drug were performed. For the assessment of ocular toxicity described above, the testing platform the inventors developed included a broad array of tests including assessment of retinal structure and function by electroretinography, photography, fluorescein angiography, OCT, and OCT-Angiography, both before and after treatment. Human WERI-Rb1 retinoblastoma xenografts were treated with either intravenous, intra-arterial, or intravitreal chemotherapy. Assessment of efficacy against vitreous seeds was by both direct quantification of seed burden (vitreous harvesting and cell counting) and by assessment of apoptosis induction by immunohistochemistry.
The retina looks just as healthy as the saline-treated control eye.

[1] = intraocular pharmacokinetics after local administration; assay type: in vivo, rabbit; conditions: local administration routes (intravitreal, intra-arterial)
Protocol: (§2) The present inventors have additionally determined the pharmacokinetics of belinostat when injected directly into the vitreous of the rabbit eye and have calculated its intraocular half-life in vivo. […] Specifically, once the PK curve of intravitreally-injected belinostat was determined and the half-life calculated, human retinoblastoma cells were incubated in cell culture in media containing varying concentrations of belinostat for a length of time equivalent to 5 intraocular half-lives, the media was then replaced with belinostat-free media and incubated for 7 days, and the number of surviving cells was then determined. Then, as an example, the present inventors back-calculated the initial intravitreal injection dose that would ensure that a concentration equal to or above the in vitro IC90 would be achieved even out to 5 half-lives, in vivo.

[2] = system: human WERI-Rb1 retinoblastoma xenografts (vitreous seeds); assay: rabbit model of retinoblastoma vitreous seeds, intravitreal treatment, quantification of seed burden; assay type: in vivo; conditions: for reduction in tumor cells / tumor burden compared to saline: 3 weekly intravitreal injections (belinostat 350 μg; melphalan 25 μg), eyes harvested two weeks after final injection
Protocol: as §1
To determine efficacy and toxicity of intravitreal HDAC inhibitors for retinoblastoma treatment, vitreous seeds were generated in cyclosporine-immunosuppressed rabbits. 1,000,000 human WERI-Rb1 human retinoblastoma cells were injected into each eye. The seeds were allowed to grow for two weeks to form the types of “spherules” seen clinically with vitreous seeds. 350 μg belinostat injections were used (equivalent to approximately 700 μg in a human-sized eye). The right eye was injected with belinostat three times, weekly. The left eye was injected with saline three times, weekly. The eyes were harvested for analysis two weeks after the final injection, and subjected to the cell quantification and apoptosis induction assays described in the above paragraph.
To compare the efficacy of an embodiment of the present invention with melphalan treatment, rabbit eyes were treated with 3 weekly injections of 350 μg belinostat by local (intravitreal) injection as described above. The melphalan comparator group received 3 weekly injections of 25 μg melphalan (the clinically-used dose) by intravitreal injection. Eyes were harvested two weeks after the final injection. […]

[3] = system: human retinoblastoma cells; assay: killing of human retinoblastoma cells in cell culture; assay type: cell-based; conditions: for killing of human retinoblastoma cells by a brief pulse of HDAC inhibitor: brief pulse exposure, multiple concentrations
Protocol: as §2

[4] = system: rabbit eye (retinal function); assay: retinal function by electroretinography after intravitreal injections; assay type: in vivo
Protocol: as §1
We next wanted to use the toxicity assessment platform that we have developed previously (described above) to compare the toxicity of belinostat (in accordance with the present invention) to current standard-of-care melphalan. As with the efficacy experiments, rabbits received either 3 injections (weekly) of belinostat 350 μg (the effective dose in our rabbit model), or else belinostat 700 μg (double the clinically-effective dose in our rabbit model), or else melphalan 25 μg (the current, clinically-used dose).

[5] = intra-arterial melphalan, patients; cited from earlier work

For `O=C(/C=C/c1cccc(S(=O)(=O)Nc2ccccc2)c1)NO` [belinostat, N hydroxy-3-(3-phenylsulfamoyl-phenyl)-acrylamide], the “retinal architecture on histopathology” value (rabbit eye (retina)) was “retained normal retinal architecture and healthy-appearing retina; also recorded: no evidence of retinal degeneration”, the intraocular concentrations [1] was “very high intraocular concentrations, but of very brief duration” and the “response of vitreous tumor seeds (photographs, FIG. 1)” value ([2]; 350 μg belinostat intravitreal, three times weekly, vs saline-treated left eye) was “eradication of retinoblastoma vitreous seeds”. For the same molecule, the “reduction in tumor cells / tumor burden compared to saline” value [2] was 95%, the “killing of human retinoblastoma cells by a brief pulse of HDAC inhibitor” value (“killing … of HDAC inhibitor” below) [3] was “can be killed by exposure to a brief pulse” and the “killing of human retinoblastoma cells in vitro” value ([3]; in vitro) was “effective for killing human retinoblastoma cells in vitro”. For the same molecule, the “ERG parameters (retinal function)” value ([4]; intravitreal belinostat 700 μg (double the clinically-effective dose), 3 weekly injections) was “only mild worsening of ERG parameters”, the “retinal functional loss and toxicity (A wave and B wave amplitude, FIG. 3)” value ([4]; rabbit, in vivo) was “(absence of) retinal functional loss” and the “retinal toxicity or structural damage” value ([4]; rabbit, in vivo) was “no such retinal toxicity or structural damage”.

In the case of `Nc1ccccc1NC(=O)c1ccc(CNC(=O)OCc2cccnc2)cc1` [etinostat], the “killing … of HDAC inhibitor” value [3] is reported as “can be killed by exposure to a brief pulse”.

In the case of `N[C@@H](Cc1ccc(N(CCCl)CCCl)cc1)C(=O)O` [melphalan], the “retinal architecture on histopathology” value (rabbit eye (retina)) is reported as “severe atrophy of the retina; also recorded: evidence of retinal degeneration”, the “reduction in tumor cells / tumor burden compared to saline” value [2] is reported as 93% and the “retinal toxicity or structural damage” value ([4]; intravitreal injection, dose not given) is reported as “retinal structural damage”. For the same molecule, the “reduction in measured retinal function (electroretinography amplitudes)” value ([4]; intravitreal melphalan 25 μg, 3 weekly injections, across all parameters measured) was 66-90% and the rates of complications [5] was about 40%.

In the case of `Cc1[nH]c2ccccc2c1CCNCc1ccc(/C=C/C(=O)NO)cc1` [panobinostat], the “killing … of HDAC inhibitor” value [3] is reported as “can be killed by exposure to a brief pulse”.
